Assay results from patent US8993594B2, “Isoquinolin-1(2H)-one derivatives as PARP-1 inhibitors” (Nerviano Medical Sciences S.R.L., priority 2009, dated 2015).
Counter-ions that a name gives are not always drawn.

Columns and labels:
[1] = target: PARP-1 FL (Homo sapiens, UniProt P09874); experiment: Fluorescence polarization probe displacement assay; format: binding; settings: for DC50: half maximal displacement concentration
Method: (§1) Affinity of the tested compounds and their selectivity with respect to the different PARP isoforms of interest was quantified in a displacement assay.
(§2) In all of the experiments, the polarization signal was measured using a Saphire2 plate reader (Tecan). Data analysis was performed using Dynafit software. In particular, titration data were fitted to the following equilibria: Enzyme+probe <==> Complex Enzyme-probe, while displacement data were fitted to the following equilibria: Enzyme+probe <==> Complex Enzyme-probe, Enzyme+Compound <==> Complex Enzyme-Compound, whereby binding of probe and compound on the enzyme are mutually exclusive (pure competitive mechanism). Displacement data were also fitted using Excel spreadsheet (Microsoft Inc. Seattle, USA) to a four parameter logistic model (4PL), or Hill-Slope model to calculate DC50s where the DC50 value represents the compound concentration at which the polarization signal is diminished by 50% compared to untreated controls.
(§3) In agreement, affinity binding constants (KD) were determined by fitting with a pure competitive mechanism. KD values are the average of three independent experiments.

[2] = test system: hydrogen peroxide induced PAR formation in HeLa cells; experiment: Cellular PAR assay (inhibition of hydrogen peroxide induced PAR formation); format: cell-based; settings: Homo sapiens, 0.1 mM hydrogen peroxide 15 min
Method: Compounds potencies were evaluated by measuring the inhibition of poly (ADP-ribose) (PAR) chains formation as a marker for PARP-1 inhibition.
Cellular activity of PARP-1 inhibitors was assessed by measuring the inhibition of the hydrogen peroxide induced PAR formation in HeLa cells (ECACC). Cellular PAR levels were measured by immunocytochemistry and quantified using an ArrayScan vTi instrument (Cellomics Thermo Scientific).
Studies were performed as follows: 6000 cells/well were seeded in 96 well plates (Perkin Elmer) in MEM/10% FCS and incubated for 24 hours at 37° C., 5% carbon dioxide. Test compounds were then added at the required concentration for 30′. […] Concentration curves were prepared in MEM/10% FCS from compound stocks in DMSO and final DMSO concentration was 0.002% (v/v). Duplicate wells for each concentration point were prepared with a typical highest compound concentration of 20 μM and serial dilution 1:3. […] Non-specific binding sites were blocked by incubating wells for 30 min in PBS containing 5% (w/v) FBS 0.05% tween20. […] After washing further 3 times in PBS, cellular PAR immunoreactivity was assessed using the ArrayScan vTi instrument, with a Zeiss 10×0.5 N.A. objective, and applying the Cytotoxicity.V3 algorithm (Cellomics/Thermo Fisher) with a XF100 filter. At least 10 fields, corresponding to at least 900 cells, were read for each well.
The following formula is used: IC50=Bottom+(Top−Bottom)/(1+10^((Log EC50−X))); X is the logarithm of concentration. IC50 is the response; IC50 starts at Bottom and goes to Top with a sigmoid shape.

[3] = target: PARP-2 FL (Homo sapiens, UniProt Q9UGN5); experiment: Fluorescence polarization probe displacement assay; format: binding; settings: for DC50: compound P1 as the probe
Chain of PARP-2 FL (Q9UGN5 whole entry): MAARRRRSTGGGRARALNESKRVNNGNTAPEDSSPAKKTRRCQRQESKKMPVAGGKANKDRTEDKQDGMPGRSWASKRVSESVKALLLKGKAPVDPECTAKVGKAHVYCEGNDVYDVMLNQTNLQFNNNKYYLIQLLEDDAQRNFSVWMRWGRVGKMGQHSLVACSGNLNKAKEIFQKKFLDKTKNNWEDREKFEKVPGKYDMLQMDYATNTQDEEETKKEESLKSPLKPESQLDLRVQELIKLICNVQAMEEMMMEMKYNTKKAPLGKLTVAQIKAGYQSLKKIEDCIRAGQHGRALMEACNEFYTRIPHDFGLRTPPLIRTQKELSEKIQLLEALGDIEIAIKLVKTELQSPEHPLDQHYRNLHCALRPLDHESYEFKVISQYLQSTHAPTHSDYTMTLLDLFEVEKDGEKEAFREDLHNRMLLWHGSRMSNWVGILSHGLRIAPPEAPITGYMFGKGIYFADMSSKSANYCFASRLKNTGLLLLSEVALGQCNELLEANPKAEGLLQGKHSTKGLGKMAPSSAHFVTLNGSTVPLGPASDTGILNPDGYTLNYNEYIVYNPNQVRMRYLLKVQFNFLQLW
Method: as §1, §2, §3

[4] = target: T1, PARP-3 FL (Homo sapiens, UniProt Q9Y6F1); experiment: Fluorescence polarization probe displacement assay; format: binding; settings: compound P1 as the probe
T1 sequence (Q9Y6F1 1-533): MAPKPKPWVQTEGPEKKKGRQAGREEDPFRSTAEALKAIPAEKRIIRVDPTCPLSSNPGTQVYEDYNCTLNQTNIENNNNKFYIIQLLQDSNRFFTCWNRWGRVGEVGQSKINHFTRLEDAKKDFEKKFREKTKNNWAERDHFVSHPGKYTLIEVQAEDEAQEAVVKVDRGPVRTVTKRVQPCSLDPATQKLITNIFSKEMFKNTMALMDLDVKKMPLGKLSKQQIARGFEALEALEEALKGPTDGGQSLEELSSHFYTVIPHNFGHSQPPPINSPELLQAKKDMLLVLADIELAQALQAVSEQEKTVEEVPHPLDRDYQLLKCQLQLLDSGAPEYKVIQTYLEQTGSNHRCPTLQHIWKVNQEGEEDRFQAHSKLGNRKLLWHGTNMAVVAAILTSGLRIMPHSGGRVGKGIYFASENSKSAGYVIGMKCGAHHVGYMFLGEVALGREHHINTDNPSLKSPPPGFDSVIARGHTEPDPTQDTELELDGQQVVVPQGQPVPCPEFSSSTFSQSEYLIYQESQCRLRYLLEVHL
Method: as §1, §2, §3

[5] = Pharmacokinetics and oral bioavailability in the mouse; format: in vivo
Method: The compounds were formulated in 10% tween 80/dextrose for intravenous bolus administration while oral administrations were performed using the compounds formulated in 0.5% methylcellulose. A single administration at the dose of 10 mg/kg was given and three male animals for each route were used. […] Plasma samples were prepared by plasma proteins precipitation adding 200 µl of methanol to 10 µl of plasma in a 96 well plate. […] The supernatant was considered as final extract and injected onto the LC-MS-MS system (HPLC system: Hewlett Packard 1100 series using Atlantis HILIC Silica 50*2.1 mm 5.0 μM analytical column; MS instrument: Perkin Elmer SCIEX API 2000 and ionization performed with Turbo Ion Spray in positive ion mode). Lower limit of quantification is 5.0 ng/ml, upper limit of quantification is 10000 ng/ml. […] Non-compartmental method (linear trapezoidal rule and linear regression analysis of natural log-transformed plasma concentrations vs. time data) was used. After intravenous dosing, C0 was set equal to C0.083, Absolute bioavailability (F) was calculated from the ratio of average oral to IV (intravenous) dose-normalized plasma AUC (area under curve) values.

Chain of PARP-1 FL (P09874 whole entry): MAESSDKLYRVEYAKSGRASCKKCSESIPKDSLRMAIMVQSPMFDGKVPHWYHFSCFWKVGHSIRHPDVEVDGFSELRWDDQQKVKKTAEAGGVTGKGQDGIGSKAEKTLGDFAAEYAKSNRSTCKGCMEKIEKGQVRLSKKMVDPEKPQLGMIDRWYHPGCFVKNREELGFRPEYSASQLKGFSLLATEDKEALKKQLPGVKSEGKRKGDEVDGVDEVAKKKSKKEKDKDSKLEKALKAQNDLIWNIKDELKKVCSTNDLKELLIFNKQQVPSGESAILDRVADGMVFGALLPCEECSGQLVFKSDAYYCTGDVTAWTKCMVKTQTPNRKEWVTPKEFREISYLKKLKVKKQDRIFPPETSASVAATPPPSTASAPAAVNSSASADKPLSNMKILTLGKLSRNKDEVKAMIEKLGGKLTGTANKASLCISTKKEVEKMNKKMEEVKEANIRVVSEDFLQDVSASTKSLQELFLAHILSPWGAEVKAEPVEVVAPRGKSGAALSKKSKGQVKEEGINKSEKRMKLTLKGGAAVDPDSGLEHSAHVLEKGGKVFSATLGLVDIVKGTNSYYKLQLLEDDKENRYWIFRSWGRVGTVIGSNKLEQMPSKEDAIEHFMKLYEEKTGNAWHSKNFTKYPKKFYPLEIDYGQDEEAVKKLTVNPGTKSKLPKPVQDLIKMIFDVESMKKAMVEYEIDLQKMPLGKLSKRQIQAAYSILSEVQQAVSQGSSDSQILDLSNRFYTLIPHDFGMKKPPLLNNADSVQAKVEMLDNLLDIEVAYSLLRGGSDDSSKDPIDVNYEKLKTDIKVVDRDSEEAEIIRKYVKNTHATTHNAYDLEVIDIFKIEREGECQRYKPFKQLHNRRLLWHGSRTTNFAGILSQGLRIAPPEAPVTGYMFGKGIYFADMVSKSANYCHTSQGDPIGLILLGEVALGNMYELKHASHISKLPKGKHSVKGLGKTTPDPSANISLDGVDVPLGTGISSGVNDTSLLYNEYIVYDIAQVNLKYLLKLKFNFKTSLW

Row | SMILES | Kd [1] [µM] | DC50 [1] [µM] | IC50 [2] [µM] | Kd [3] [µM] | DC50 [3] [µM] | DC50 [4] [µM] | Displacement of the probe (compound P1 or compound P3) ([1]; from all of the tested PARP isoforms) | F on AUC ([5]; 10 mg/kg, ratio of oral to IV dose-normalized plasma AUC) [%] | clearance ([5]; male, Balb Nu/Nu, plasma, 10 mg/kg intravenous bolus, mean value, read-out: CL(IV bolus)) [mL/min/kg] | Vd ([5]; male, Balb Nu/Nu, plasma, 10 mg/kg intravenous bolus, mean value, read-out: Vdss (IV bolus)) [L/kg] | AUC ([5]; male, Balb Nu/Nu, plasma, 10 mg/kg oral, mean value) [µM·h] | half-life ([5]; male, Balb Nu/Nu, plasma, 10 mg/kg oral, mean value, read-out: T½ (oral) (converted)) [h]
1 | NCCCOc1c(-c2ccccc2)[nH]c(=O)c2ccccc12 [Compound 3, 4-(3-Amino-propoxy)-3-phenyl-2H-isoquinolin-1-one hydrochloride] | < 0.03 | < 0.25 | 3.26 | 3.92 | 4.1 | – | – | – | – | – | – | –
2 | CCN(CC)CCCOc1c(-c2ccccc2)[nH]c(=O)c2ccccc12 [Compound 18, 4-(3-Diethylamino-propoxy)-3-phenyl-2H-isoquinolin-1-one hydrochloride] | < 0.03 | < 0.25 | 0.85 | 8.65 | – | – | – | – | – | – | – | –
3 | O=c1[nH]c(-c2ccccc2)c(OCCCN2CCCCC2)c2ccc(Cl)cc12 [Compound 37, 7-Chloro-3-phenyl-4-(3-piperidin-1-yl-propoxy)-2H-isoquinolin-1-one] | – | < 0.25 | 0.62 | – | – | – | – | – | – | – | – | –
4 | NCCOc1c(-c2cccc(O)c2)[nH]c(=O)c2cc(F)ccc12 [Compound 47, 4-(2-Amino-ethoxy)-7-fluoro-3-(3-hydroxy-phenyl)-2H-isoquinolin-1-one] | < 0.03 | < 0.25 | 0.1 | – | 0.51 | 0.22 | – | – | – | – | – | –
5 | CC(=O)NCCOc1c(-c2ccccc2)[nH]c(=O)c2ccccc12 [Compound 2, N-[2-(1-Oxo-3-phenyl-1,2-dihydro-isoquinolin-4-yloxy)-ethyl]-acetamide] | 0.2 | 0.32 | 6.72 | 6.28 | – | – | – | – | – | – | – | –
6 | NCCOc1c(-c2ccc(O)cc2)[nH]c(=O)c2cc(F)ccc12 [Compound 28, 4-(2-Amino-ethoxy)-7-fluoro-3-(4-hydroxy-phenyl)-2H-isoquinolin-1-one hydrobromide] | < 0.03 | < 0.25 | 0.4 | – | 1.1 | 0.47 | – | – | – | – | – | –
7 | O=c1[nH]c(-c2ccccc2)c(OC2CCNCC2)c2ccc(F)cc12 [Compound 85, 7-fluoro-3-phenyl-4-(piperidin-4-yloxy)isoquinolin-1(2H)-one hydrochloride] | – | 0.38 | – | – | 4.35 | 0.54 | – | – | – | – | – | –
8 | NCCCCOc1c(-c2ccccc2)[nH]c(=O)c2ccccc12 [Compound 22, 4-(4-Amino-butoxy)-3-phenyl-2H-isoquinolin-1-one hydrochloride] | < 0.03 | < 0.25 | 9.5 | 1.34 | 4.08 | – | – | – | – | – | – | –
9 | O=c1[nH]c(-c2ccccc2)c(OCCCN2CCCC2)c2ccccc12 [Compound 21, 3-Phenyl-4-(3-pyrrolidin-1-yl-propoxy)-2H-isoquinolin-1-one] | 0.04 | < 0.25 | 8.3 | 1.36 | 1.58 | – | – | – | – | – | – | –
10 | COc1ccc(-c2[nH]c(=O)c3ccccc3c2OCCCN2CCCCC2)cc1 [Compound 23, 3-(4-Methoxy-phenyl)-4-(3-piperidin-1-yl-propoxy)-2H-isoquinolin-1-one] | < 0.03 | < 0.25 | 0.17 | – | – | 0.48 | – | – | – | – | – | –
11 | CN1CCN(CCCOc2c(-c3ccccc3)[nH]c(=O)c3ccccc23)CC1 [Compound 20, 4-[3-(4-Methyl-piperazin-1-yl)-propoxy]-3-phenyl-2H-isoquinolin-1-one di hydrochloride] | 0.05 | < 0.25 | 6.5 | 5.35 | 5.52 | – | – | – | – | – | – | –
12 | CNCCOc1c(-c2ccccc2)[nH]c(=O)c2ccccc12 [Compound 16, 4-(2-Methylamino-ethoxy)-3-phenyl-2H-isoquinolin-1-one] | < 0.03 | < 0.25 | 0.48 | 2.44 | – | – | – | – | – | – | – | –
13 | O=c1[nH]c(-c2ccccc2)c(OCCCN2CCCCC2)c2ccccc12 [Compound 5, 3-Phenyl-4-(3-piperidin-1-yl-propoxy)-2H-isoquinolin-1-one trifluoroacetate] | < 0.03 | < 0.25 | 1.44 | 4.59 | 4.34 | – | – | – | – | – | – | –
14 | CNCCCOc1c(-c2ccccc2)[nH]c(=O)c2ccccc12.Cl [Compound 12, 4-(3-Methylamino-propoxy)-3-phenyl-2H-isoquinolin-1-one hydrochloride] | 0.05 | < 0.25 | 0.42 | 1.65 | 2.91 | – | – | 17 | 177 | 3.3 | 0.52 | 1.19
15 | NCCOc1c(-c2ccsc2)[nH]c(=O)c2ccccc12 [Compound 29, 4-(2-Amino-ethoxy)-3-thiophen-3-yl-2H-isoquinolin-1-one hydrochloride] | < 0.03 | < 0.25 | – | – | 0.54 | 0.2 | – | – | – | – | – | –
16 | O=c1[nH]c(-c2ccccc2)c(OCCCN2CCCCC2)c2ccc(F)cc12 [Compound 38, 7-Fluoro-3-phenyl-4-(3-piperidin-1-yl-propoxy)-2H-isoquinolin-1-one] | – | < 0.25 | 0.3 | – | 3.78 | – | – | – | – | – | – | –
17 | O=C(NCCCOc1c(-c2ccccc2)[nH]c(=O)c2ccccc12)c1ccccc1 [Compound 8, N-[3-(1-Oxo-3-phenyl-1,2-dihydro-isoquinolin-4-yloxy)-propyl]benzamide] | – | 0.82 | – | – | 4.29 | – | – | – | – | – | – | –
18 | CN1CCN(CCOc2c(-c3ccccc3)[nH]c(=O)c3ccccc23)CC1 [Compound 19, 4-[2-(4-Methyl-piperazin-1-yl)-ethoxy]-3-phenyl-2H-isoquinolin-1-one di hydrochloride] | < 0.03 | < 0.25 | – | 7.29 | – | – | – | – | – | – | – | –
19 | NCCOc1c(-c2ccccc2)[nH]c(=O)c2ccccc12 [Compound 1, 4-(2-Amino-ethoxy)-3-phenyl-2H-isoquinolin-1-one hydrochloride] | < 0.03 | < 0.25 | 0.79 | 3.07 | 2.89 | – | – | – | – | – | – | –

Results, then the compound that gave them:

Row | Kd [1] [µM] | DC50 [1] [µM] | IC50 [2] [µM] | Kd [3] [µM] | DC50 [3] [µM] | DC50 [4] [µM] | Displacement of the probe (compound P1 or compound P3) ([1]; from all of the tested PARP isoforms) | F on AUC ([5]; 10 mg/kg, ratio of oral to IV dose-normalized plasma AUC) [%] | clearance ([5]; male, Balb Nu/Nu, plasma, 10 mg/kg intravenous bolus, mean value, read-out: CL(IV bolus)) [mL/min/kg] | Vd ([5]; male, Balb Nu/Nu, plasma, 10 mg/kg intravenous bolus, mean value, read-out: Vdss (IV bolus)) [L/kg] | AUC ([5]; male, Balb Nu/Nu, plasma, 10 mg/kg oral, mean value) [µM·h] | half-life ([5]; male, Balb Nu/Nu, plasma, 10 mg/kg oral, mean value, read-out: T½ (oral) (converted)) [h] | SMILES
20 | 0.04 | < 0.25 | 0.09 | 2.02 | 4.21 | 2.52 | – | – | – | – | – | – | COc1cccc(-c2[nH]c(=O)c3cc(F)ccc3c2OCCCN2CCCCC2)c1 [Compound 43, 7-Fluoro-3-(3-methoxy-phenyl)-4-(3-piperidin-1-yl-propoxy)-2H-isoquinolin-1-one hydrochloride]
21 | 0.19 | 0.31 | – | 0.95 | 0.91 | – | – | – | – | – | – | – | CC(=O)NCCCOc1c(-c2ccccc2)[nH]c(=O)c2ccccc12 [Compound 4, N-[3-(1-Oxo-3-phenyl-1,2-dihydro-isoquinolin-4-yloxy)-propyl]-acetamide]
22 | < 0.03 | < 0.25 | 0.08 | – | 3.3 | 0.33 | – | – | – | – | – | – | NCCOc1c(-c2cccc(Cl)c2)[nH]c(=O)c2cc(F)ccc12 [Compound 50, 4-(2-Amino-ethoxy)-3-(3-chloro-phenyl)-7-fluoro-2H-isoquinolin-1-one hydrochloride]
23 | < 0.03 | < 0.25 | 0.34 | 1.01 | 3.28 | – | – | – | – | – | – | – | CN(C)CCOc1c(-c2ccccc2)[nH]c(=O)c2ccccc12 [Compound 17, 4-(2-Dimethylamino-ethoxy)-3-phenyl-2H-isoquinolin-1-one]
24 | < 0.03 | < 0.25 | 0.86 | > 10 | > 10 | – | – | – | – | – | – | – | O=c1[nH]c(-c2ccccc2)c(OCCN2CCNCC2)c2ccccc12 [Compound 6, 3-Phenyl-4-(2-piperazin-1-yl-ethoxy)-2H-isoquinolin-1-one di-hydrochloride]
25 | < 0.03 | < 0.25 | – | > 10 | > 10 | – | – | – | – | – | – | – | CC(=O)N1CCN(CCOc2c(-c3ccccc3)[nH]c(=O)c3ccccc23)CC1 [Compound 7, 4-[2-(4-Acetyl-piperazin-1-yl)-ethoxy]-3-phenyl-2H-isoquinolin-1-one]
26 | – | 0.37 | – | – | 0.86 | – | – | – | – | – | – | – | COc1cccc(-c2[nH]c(=O)c3ccccc3c2OCCN2CCCCC2)c1 [Compound 9, 3-(3-Methoxy-phenyl)-4-(2-piperidin-1-yl-ethoxy)-2H-isoquinolin-1-one]
27 | < 0.03 | < 0.25 | 4.2 | 6.13 | 4.29 | – | – | – | – | – | – | – | O=c1[nH]c(-c2ccccc2)c(OCCCN2CCNCC2)c2ccccc12 [Compound 14, 3-Phenyl-4-(3-piperazin-1-yl-propoxy)-2H-isoquinolin-1-one di-hydrochloride]
28 | – | – | – | – | – | – | fully displaced | – | – | – | – | – | NC(=O)c1cccc(N)c1 [Compound 3-AB, 3-aminobenzamide, reference compound]
29 | 0.05 | 0.35 | 0.33 | 4.39 | – | – | – | – | – | – | – | – | COc1cccc(-c2[nH]c(=O)c3ccccc3c2OCCCN2CCCCC2)c1 [Compound 10, 3-(3-Methoxy-phenyl)-4-(3-piperidin-1-yl-propoxy)-2H-isoquinolin-1-one]
